Measurements reported in US6855730B2, “3-methylidenyl-2-indolinone modulators of protein kinase” (Sugen, Inc., priority 1998, dated 2005).

Key:
[1] = target: T1, PDGFR-β (Homo sapiens, UniProt P09619); assay: Biochemical PDGFR assay (ELISA, PDGFR-β expressing NIH 3T3 cell lysate); conditions: read-out: bio PDGF IC50
T1 construct: host or cells: NIH 3T3
In short: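 Phosphorylation was read by ELISA (anti-phosphotyrosine serum, peroxidase secondary, ABTS at 410 nm) after a 30 min room-temperature reaction with 20 μM ATP, EDTA-stopped. Kinase was lysate-derived PDGFR-β (NIH 3T3) immobilised via 28D4C10 antibody, compound added 30 min before ATP.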

[2] = target: Myc-GyrB-FGFR fusion protein (Homo sapiens, UniProt P11362); assay: Biochemical FGFR assay (ELISA); conditions: read-out: bio fgfR1 IC50
Myc-GyrB-FGFR fusion protein, sequence (P11362 478-767 limits assumed): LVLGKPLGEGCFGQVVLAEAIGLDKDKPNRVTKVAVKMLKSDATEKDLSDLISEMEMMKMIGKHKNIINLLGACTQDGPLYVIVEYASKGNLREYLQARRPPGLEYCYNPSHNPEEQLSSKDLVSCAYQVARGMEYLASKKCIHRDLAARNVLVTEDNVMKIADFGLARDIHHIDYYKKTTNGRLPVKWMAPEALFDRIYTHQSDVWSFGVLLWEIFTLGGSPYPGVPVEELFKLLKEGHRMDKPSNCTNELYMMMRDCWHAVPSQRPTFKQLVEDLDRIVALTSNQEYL

[3] = target: T2, flkGST (Homo sapiens, UniProt P35968); assay: bio flkGST assay; type: biochemical
T2 construct: GST
T2 sequence (P35968 786-1356 limits assumed): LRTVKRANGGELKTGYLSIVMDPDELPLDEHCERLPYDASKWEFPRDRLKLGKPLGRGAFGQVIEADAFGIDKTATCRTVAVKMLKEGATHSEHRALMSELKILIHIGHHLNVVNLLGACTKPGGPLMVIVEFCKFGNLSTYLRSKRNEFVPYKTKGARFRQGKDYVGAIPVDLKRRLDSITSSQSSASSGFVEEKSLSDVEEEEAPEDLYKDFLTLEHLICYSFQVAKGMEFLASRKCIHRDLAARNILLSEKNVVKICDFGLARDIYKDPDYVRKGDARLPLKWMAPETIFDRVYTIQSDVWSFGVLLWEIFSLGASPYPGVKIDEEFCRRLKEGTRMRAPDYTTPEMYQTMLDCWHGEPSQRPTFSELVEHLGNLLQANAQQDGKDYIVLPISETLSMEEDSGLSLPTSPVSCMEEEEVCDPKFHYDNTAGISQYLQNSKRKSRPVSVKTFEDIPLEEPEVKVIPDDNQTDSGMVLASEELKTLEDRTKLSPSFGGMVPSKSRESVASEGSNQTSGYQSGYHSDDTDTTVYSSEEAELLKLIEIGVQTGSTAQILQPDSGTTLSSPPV

[4] = target: pyk2 (Homo sapiens, UniProt Q14289); assay: bio pyk2 assay; type: biochemical
pyk2, sequence (Q14289 whole entry, species assumed): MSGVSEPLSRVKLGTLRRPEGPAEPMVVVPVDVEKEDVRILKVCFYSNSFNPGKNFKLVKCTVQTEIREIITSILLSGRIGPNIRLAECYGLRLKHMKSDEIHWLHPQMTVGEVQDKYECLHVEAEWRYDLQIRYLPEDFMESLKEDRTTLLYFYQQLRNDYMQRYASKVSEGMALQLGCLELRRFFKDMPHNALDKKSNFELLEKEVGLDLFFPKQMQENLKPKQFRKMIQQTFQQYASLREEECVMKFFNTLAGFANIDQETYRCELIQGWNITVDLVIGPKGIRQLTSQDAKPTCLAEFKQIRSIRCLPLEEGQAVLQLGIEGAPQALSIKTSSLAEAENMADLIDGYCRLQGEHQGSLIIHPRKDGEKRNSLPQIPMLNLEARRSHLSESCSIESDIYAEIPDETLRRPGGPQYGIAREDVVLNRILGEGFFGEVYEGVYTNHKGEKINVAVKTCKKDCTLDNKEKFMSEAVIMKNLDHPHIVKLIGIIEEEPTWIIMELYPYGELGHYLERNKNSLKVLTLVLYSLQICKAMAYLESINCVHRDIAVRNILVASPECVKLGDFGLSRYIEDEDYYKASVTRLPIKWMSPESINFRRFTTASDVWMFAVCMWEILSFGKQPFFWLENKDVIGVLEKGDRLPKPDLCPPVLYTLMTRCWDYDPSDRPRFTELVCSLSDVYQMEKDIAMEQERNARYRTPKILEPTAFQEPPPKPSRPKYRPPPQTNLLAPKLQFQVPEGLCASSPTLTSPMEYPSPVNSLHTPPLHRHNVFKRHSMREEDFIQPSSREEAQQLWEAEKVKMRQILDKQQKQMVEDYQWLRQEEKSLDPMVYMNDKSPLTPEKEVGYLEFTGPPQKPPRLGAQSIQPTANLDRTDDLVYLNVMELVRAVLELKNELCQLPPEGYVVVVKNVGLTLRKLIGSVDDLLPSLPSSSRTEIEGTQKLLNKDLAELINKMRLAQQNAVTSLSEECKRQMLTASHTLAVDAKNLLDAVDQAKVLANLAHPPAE

[5] = target: EGFR (Homo sapiens, UniProt P00533); assay: Biochemical EGFR assay (ELISA, A431 cell lysate); design: A431 cell lysate (Screening Lab, SUGEN, Inc.); host or cells: A431; conditions: read-out: bio EGFr IC50
In short: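 EGFR captured from A431 cell lysate onto anti-EGFR-coated plates, then incubated with test compound for 30 min at room temperature. Tyrosine phosphorylation with ATP/MnCl2 was stopped with EDTA after 5 min and detected by anti-phosphotyrosine ELISA with peroxidase/ABTS read-out.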

[6] = target: T3, human flk-1 (Homo sapiens, UniProt P35968); assay: Biochemical FLK-1 assay (flk-1 autophosphorylation ELISA); conditions: read-out: bio FLK1 IC50 (μM) % if inhibition at 100
T3 construct: host or cells: Flk-1/NIH cells (NIH fibroblasts)
T3 sequence (P35968 20-1356): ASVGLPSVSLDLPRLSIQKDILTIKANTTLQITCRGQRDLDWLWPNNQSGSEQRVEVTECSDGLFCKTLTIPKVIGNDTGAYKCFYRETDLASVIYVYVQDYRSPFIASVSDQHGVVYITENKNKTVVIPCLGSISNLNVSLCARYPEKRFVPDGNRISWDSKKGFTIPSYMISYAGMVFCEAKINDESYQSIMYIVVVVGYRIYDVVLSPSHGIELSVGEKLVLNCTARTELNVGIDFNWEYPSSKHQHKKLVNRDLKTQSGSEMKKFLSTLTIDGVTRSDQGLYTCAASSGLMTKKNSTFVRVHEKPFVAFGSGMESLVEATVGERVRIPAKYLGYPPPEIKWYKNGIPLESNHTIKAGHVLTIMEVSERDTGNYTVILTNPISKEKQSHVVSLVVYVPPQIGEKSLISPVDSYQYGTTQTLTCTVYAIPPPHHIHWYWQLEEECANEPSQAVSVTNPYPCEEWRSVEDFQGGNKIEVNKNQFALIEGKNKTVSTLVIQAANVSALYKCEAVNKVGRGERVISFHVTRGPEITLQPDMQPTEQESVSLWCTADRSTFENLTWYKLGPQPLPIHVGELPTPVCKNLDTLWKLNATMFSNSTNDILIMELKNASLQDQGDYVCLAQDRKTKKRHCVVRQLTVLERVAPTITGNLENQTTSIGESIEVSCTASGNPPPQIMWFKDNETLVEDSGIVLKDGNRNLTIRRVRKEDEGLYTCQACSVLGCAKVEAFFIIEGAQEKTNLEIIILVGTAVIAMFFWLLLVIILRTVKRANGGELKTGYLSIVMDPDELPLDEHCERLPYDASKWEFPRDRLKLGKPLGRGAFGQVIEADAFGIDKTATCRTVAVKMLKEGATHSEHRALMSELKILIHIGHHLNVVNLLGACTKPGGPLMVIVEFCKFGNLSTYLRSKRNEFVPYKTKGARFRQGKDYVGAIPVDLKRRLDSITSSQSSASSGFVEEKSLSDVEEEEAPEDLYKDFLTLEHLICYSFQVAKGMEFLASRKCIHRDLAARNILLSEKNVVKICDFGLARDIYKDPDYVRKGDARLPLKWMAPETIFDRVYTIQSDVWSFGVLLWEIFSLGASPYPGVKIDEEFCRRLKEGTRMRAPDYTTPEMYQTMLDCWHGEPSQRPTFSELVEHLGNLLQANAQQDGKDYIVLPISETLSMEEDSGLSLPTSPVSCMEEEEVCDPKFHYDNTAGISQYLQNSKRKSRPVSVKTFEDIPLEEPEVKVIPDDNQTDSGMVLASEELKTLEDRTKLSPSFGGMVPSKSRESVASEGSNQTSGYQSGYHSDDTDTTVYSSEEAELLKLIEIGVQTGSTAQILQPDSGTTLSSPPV
Experimental: This assay evaluates flk-1 autophosphorylation activity in vitro using ELISA.
Materials And Reagents • 1. 15 cm tissue culture dishes • 2. Flk-1/NIH cells: NIH fibroblast line over-expressing human flk-1clone 3 (SUGEN, Inc., obtained from MPI, Martinsried, Germany). • 3. Growth medium: DMEM plus heat inactivated 10% FBS and 2 mM Glutamine (Gibco-BRL). • 4. Starvation medium: DMEM plus 0.5% heat-inactivated FBS, 2 mM Glutamine (Gibco-BRL). • 5. […] L4 or E38 monoclonal antibody specific for flk-1, Purified by Protein-A agarose affinity chromatography (SUGEN, Inc.). • 7. PBS (Dulbecco's Phosphate-Buffered Saline) Gibco Cat. No. 450-1300EB). • 8. HNTG (see BIOCHEMICAL FGFR for preparation). • 9. Pierce BCA protein determination kit. • 10. Blocking buffer • 11. TBST (pH 7.0) • 12. Kinase Buffer • 13. Kinase Stop Solution: 200 mM EDTA. • 14. […] AB kit (Vector Laboratories Cat. No. PK 4000). • 16. DMSO • 17. NUNC 96-well V bottom polypropylene plates (Applied Scientific Cat. No. AS-72092). • 18. Turbo-TMB (Pierce). • 19. Turbo-TMB stop solution: 1 M H2SO4. • 20. ATP (Sigma Cat. No. A-7699). • 21. 20% DMSO in TBS (pH 7.0). Procedure
Cell Growth and Lysate Preparation. • 1. Seed cell into growth medium and grow for 2-3 days to 90-100% confluency at 37° C. and 5% CO2.
2. Remove the medium and wash the cells twice with PBS. Lyse with HNTG lysis buffer. Collect all lysates and vortex mix them for 20-30 seconds. • 3. Remove insoluble material by centrifugation (5-10 min at about 10,000 ×g). • 4. Determine the protein concentration using BCA kit. • 5. Partition lysate into 1 mg aliquots, store at −80° C.
Assay Procedure • 1. Coat Corning 96-well ELISA plates with 2 μg/well purified L4 (or E 38) in 100 μl of PBS. Store overnight at […] • 2. Remove unbound proteins from wells by inverting the plate to remove the liquid. Wash one time with dH2O, pat plate on paper towel to remove excess liquid. • 3. Block plates with 150 μl blocking buffer per well. Incubate for 45-60 minutes with shaking at 4° C. • 4. Remove the blocking buffer and wash the ELISA plate three times with dH2O and one time with TBST. Pat plate on paper towel to remove excess liquid. • 5. Dilute lysate in PBS to give final concentration of 50 μg/100 μl. Add 100 μl of diluted lysate to each well. Incubate with shaking at 4° C. overnight. • 6. Remove unbound proteins from wells by inverting the plate. Wash as in step 4. • 7. Add 80 μl of kinase buffer to wells (90 μl to negative control wells). • 8. Dilute test compounds (normally 10-fold) into wells of a polypropylene plate containing 20% DMSO in TBS. • 9. Add 10 μl of the diluted compounds to the ELISA wells containing immobilized flk-1 and shake. Control wells receive no compounds. • 10. From stock 1 mM ATP, prepare 0.3 mM ATP solution in dH2O (alternatively, kinase buffer may be used). • 11. Add 10 μl of 0.3 mM ATP to all wells except the negative controls. Incubate for 60 min. at room temperature with shaking. • 12. After 1 hr stop the kinase reaction by adding 11 μl 200 mM EDTA. Shake for 1-2 min. • 13. Wash the ELISA plate 4 times with dH2O and twice with TBST. • 14. Add 100 μl of 1:5000 biotinylated 4G10:TBST to all wells. Incubate 45 min with shaking at room temperature. • 15. While the above is incubating, add 50 μl of solutions A & B from the ABC kit to 10 ml of TBST. These solutions must be combined approximately 30 min prior to use. • 16. Wash plates as in step 4. • 17. Add 100 μl of the preformed A & B complex to all wells. Incubate 30 min with shaking at room temperature. • 18. Wash plates as in step 4. • 19. Add 100 μl turbo-TMB. Shake at room temperature for 10-15 min. • 20. When the color in the positive control wells reaches an absorbance of about 0.35-0.4, stop the reaction with 100 μl of turbo-TMB stop solution. • 21. Read plates on Dynatech MR7000 ELISA reader, test filter: 450 nM, reference filter: 410 nM.

T1 sequence (P09619 33-1106): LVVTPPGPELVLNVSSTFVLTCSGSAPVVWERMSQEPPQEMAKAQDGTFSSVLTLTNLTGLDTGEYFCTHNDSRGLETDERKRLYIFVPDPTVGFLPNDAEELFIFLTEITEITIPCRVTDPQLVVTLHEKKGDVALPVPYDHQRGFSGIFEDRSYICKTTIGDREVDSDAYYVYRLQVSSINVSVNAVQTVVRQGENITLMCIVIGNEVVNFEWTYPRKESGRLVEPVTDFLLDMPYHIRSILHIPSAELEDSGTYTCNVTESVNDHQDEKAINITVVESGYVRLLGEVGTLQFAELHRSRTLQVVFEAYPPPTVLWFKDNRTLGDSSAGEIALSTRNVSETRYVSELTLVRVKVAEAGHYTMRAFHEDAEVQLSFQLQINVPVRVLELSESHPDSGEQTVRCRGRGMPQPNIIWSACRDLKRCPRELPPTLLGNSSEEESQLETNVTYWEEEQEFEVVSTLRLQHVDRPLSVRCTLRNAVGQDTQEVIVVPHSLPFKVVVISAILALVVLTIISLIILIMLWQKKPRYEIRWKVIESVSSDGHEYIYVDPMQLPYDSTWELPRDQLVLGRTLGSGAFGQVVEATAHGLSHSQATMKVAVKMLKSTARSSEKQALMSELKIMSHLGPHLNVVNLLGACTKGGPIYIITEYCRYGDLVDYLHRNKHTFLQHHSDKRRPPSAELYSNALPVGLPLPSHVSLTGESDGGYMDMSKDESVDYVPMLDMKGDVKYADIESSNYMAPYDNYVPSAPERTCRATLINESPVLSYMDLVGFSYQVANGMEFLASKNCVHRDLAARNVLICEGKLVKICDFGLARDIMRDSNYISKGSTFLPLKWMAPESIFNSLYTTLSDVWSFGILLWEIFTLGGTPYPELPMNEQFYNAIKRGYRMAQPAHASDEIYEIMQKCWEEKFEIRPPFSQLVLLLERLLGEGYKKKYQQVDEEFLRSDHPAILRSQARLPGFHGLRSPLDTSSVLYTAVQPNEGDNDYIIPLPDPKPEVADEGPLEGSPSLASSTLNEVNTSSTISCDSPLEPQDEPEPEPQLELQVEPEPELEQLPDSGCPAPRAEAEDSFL

IC50 [1] [µM]	IC50 [2] [µM]	IC50 [3] [µM]	IC50 [4] [µM]	IC50 [5] [µM]	IC50 [6] [µM]	Structure (SMILES)
> 100	5.74	12.5	> 100			CNS(=O)(=O)c1ccc2c(c1)/C(=C/c1c(C)[nH]c3ccccc13)C(=O)N2 [Compound 181, 3-(2-Methyl-1H-indol-3-ylmethylene)-2-oxo-2,3-dihydro-1H-indole 5-sulfonic acid methylamide]
27		0.56	2.77			CCOC(=O)c1c(C)[nH]c(/C=C2\C(=O)Nc3cccc(CCO)c32)c1CCCN1CCN(C)CC1 [Example 136, 5-[4-(2-Hydroxyethyl)-2-oxo-1,2-dihydroindol-3-ylidenemethyl]-2-methyl-4-[3-(4methylpiperazin-1-yl)-propyl]-1H-pyrrole-3-carboxylic acid ethyl ester]
6.17		7.54	> 10	> 100		CCOC(=O)c1c(C)[nH]c(/C=C2\C(=O)Nc3ccc(S(=O)(=O)NC)cc32)c1CCCN(C)C [Example 137]
26.2		17.6	2.18	> 100		CNS(=O)(=O)c1ccc2c(c1)/C(=C/c1[nH]c(C)c(C(=O)O)c1CCCN(C)C)C(=O)N2 [Example 138, 4-(3-Dimethylaminopropyl)-2-methyl-5-(5-methylsulfamoyl-2-oxo-1,2-dihydroindol-3-ylidenemethyl)-1H-pyrrole-3-carboxylic acid]
5.26	0.77	2.66	5.02			CNS(=O)(=O)c1ccc2c(c1)/C(=C/c1[nH]c3ccccc3c1CCCN(C)C)C(=O)N2 [Example 149, 3-[3-(3-Dimethylaminopropyl)-1H-indol-2-ylmethylene]-2-oxo-2,3-dihydro-1H-indole-5-sulfonic acid methylamide]
0.34		0.2	0.01			CN(C)CCCc1c(/C=C2\C(=O)Nc3cccc(CCO)c32)[nH]c2ccccc12 [Example 150, 3-[3-(3-Dimethylaminopropyl)-1H-indol-2-ylmethylene]-4-(2-hydroxyethyl)-1,3-dihydroindol-2-one]
18	> 20	0.26	12.3			CC(=O)c1ccc2c(c1)C(=Cc1cc3ccccc3[nH]1)C(=O)N2 [Example 158, 5-Acetyl-3-(1H-indol-2-ylmethylene)-1,3-dihydro-indol-2-one]
> 100	> 20				15.8	Cc1c(/C=C2\C(=O)Nc3ccc(Br)cc32)[nH]c2ccccc12 [Example 169, 5-bromo-3-(3-methyl-1H-indol-2-ylmethylene)-1,3-dihydro-indol-2-one]
> 100	> 20				10.7	Cc1cccc2c1/C(=C/c1[nH]c3ccccc3c1C)C(=O)N2 [Example 170, 4-Methyl-3-(3-methyl-1H-indol-2-ylmethylene)-1,3-dihydroindol-2-one]
55.4	0.73	1.51	5.53			Cc1c(/C=C2\C(=O)Nc3ccc(S(N)(=O)=O)cc32)[nH]c2ccccc12 [Example 175, 3-(3-Methyl-1H-indol-2-ylmethylene)-2-oxo-2,3-dihydro-1H-indole-5-sulfonic acid amide]
79.2	0.75	2.08	66.1			CNS(=O)(=O)c1ccc2c(c1)/C(=C/c1ccc3[nH]ccc3c1)C(=O)N2 [Example 176, 3-(1H-Indol-5-ylmethylene)-2-oxo-2,3-dihydro-1H-indole-5-sulfonic acid methylamide]
> 100	3.23	> 20	57.1			CNS(=O)(=O)c1ccc2c(c1)/C(=C/c1c[nH]c3ccccc13)C(=O)N2 [Example 178, 3-(1H-Indol-3-ylmethylene)-2-oxo-2,3-dihydro-1H-indole-5-sulfonic acid methylamide]
> 100	7.68	1.55	> 100			CN(C)S(=O)(=O)c1ccc2c(c1)/C(=C/c1ccc3[nH]ccc3c1)C(=O)N2 [Example 183, 3-(1H-Indol-5-ylmethylene)-2-oxo-2,3-dihydro-1H-indole-5-sulfonic acid dimethylamide]
> 100	8.6	> 20	> 100			Cc1[nH]c2ccccc2c1/C=C1\C(=O)Nc2ccc(S(=O)(=O)N(C)C)cc21 [Example 184, 3-(2-Methyl-1H-indol-3-ylmethylene)-2-oxo-2,3-dihydro-1H-indole-5-sulfonic acid dimethylamide]
> 100	9.43	3.39	> 100			NS(=O)(=O)c1ccc2c(c1)/C(=C/c1ccc3[nH]ccc3c1)C(=O)N2 [Example 185, 3-(1H-Indol-5-ylmethylene)-2-oxo-2,3-dihydro-1H-indole-5-sulfonic acid amide]
> 100	10.4	6.12	> 100			CN(C)S(=O)(=O)c1ccc2c(c1)/C(=C/c1cc3ccccc3[nH]1)C(=O)N2 [Example 186, 3-(1H-Indol-2-ylmethylene)-2-oxo-2,3-dihydro-1H-indole-5-sulfonic acid dimethylamide]
> 100	17.5	> 20	66.4			CN(C)S(=O)(=O)c1ccc2c(c1)/C(=C/c1c[nH]c3ccccc13)C(=O)N2 [Example 188, 3-(1H-Indol-3-ylmethylene)-2-oxo-2,3-dihydro-1H-indole-5-sulfonic acid dimethylamide]
> 100	> 20	> 20	> 100			Cc1[nH]c2ccccc2c1/C=C1\C(=O)Nc2ccc(S(N)(=O)=O)cc21 [Example 189, 3-(2-Methyl-1H-indol-3-ylmethylene)-2-oxo-2,3-dihydro-1H-indole-5-sulfonic acid amide]
